Test results taken from article PMC11868579 (Nature Communications, 2024).

What was measured:
[1] = Plasma protein binding, rapid equilibrium dialysis; type: in vitro ADME; settings: human plasma, 1 µM, 16 hrs
Experimental: (§1) Measurement of aqueous kinetic solubility at pH 7.5
Solubility was measured in 50 mM HEPES, 100 mM NaCl (15% D2O, 85% H2O) in the presence of 1 mM TCEP at pH 7.5. Samples were prepared at 50 mM in DMSO-d6, diluted x 50 into buffer affording nominal concentrations of 1 mM and analysed by 1H quantitative NMR. Spectra were acquired at 300K in 5 mm tubes on a 400 MHz Bruker Avance III HD spectrometer equipped with a BBO-F probe using water suppression (presat/Watergate). A 5 mM sample of 4-hydroxybenzoic acid was used as the qNMR standard. The raw data files were processed using MNova with qNMR […]
Caco-2 permeability Assay
The permeability of Compound 4 was assessed using the CacoReady system.
Compound 4 and control compounds (propranolol, antipyrine, and vinblastine) were incubated at a final concentration of 10 µM in duplicate to either the apical (180 µL) of the monolayer to measure apical to basolateral transport (A > B) across the cell barrier or to the basolateral side (750 µL) to measure the basolateral to apical transport (B > A). […]
Plasma protein binding measured using the rapid equilibrium dialysis (RED) device system. […] Percent bound was calculated as the ([plasma cmpt] / [plasma cmpt + […]

[2] = Aqueous kinetic solubility at pH 7.5 by qNMR; type: physicochemical; settings: 50 mM HEPES, 100 mM NaCl, 1 mM TCEP
Experimental: as §1
Solubility was measured in 50 mM HEPES, 100 mM NaCl (15% D2O, 85% H2O) in the presence of 1 mM TCEP at pH 7.5. Samples were prepared at 50 mM in DMSO-d6, diluted x 50 into buffer affording nominal concentrations of 1 mM and analysed by 1H quantitative NMR. Spectra were acquired at 300K in 5 mm tubes on a 400 MHz Bruker Avance III HD spectrometer equipped with a BBO-F probe using water suppression (presat/Watergate). A 5 mM sample of 4-hydroxybenzoic acid was used

[3] = Human microsomal clearance assay; type: in vitro ADME
[4] = tested on: eIF4E WT or mutant expression; experiment: Immunoblot of eIF4E rescue construct expression; type: cell-based, human; settings: n=3
Description: Supplementary Fig. 17. Transfection of wild type eIF4E or a series of mutants […]
clone. a Scheme of the workflow to generate genetic rescue models by expression of wild type (WT) eIF4E or mutant eIF4E in the dTAG eIF4E CRISPR clones (Created in BioRender. Powers, M. (2024) https://BioRender.com/q02f176). b Representative […]
replicates). Vinculin was used as a loading control. The immunoblots were cropped to […]
(1 picture or pasted object on this page, not shown here) […]
aid interpretation of the data, original immunoblot images for all repeats are available in the Supplementary Source Data. d Quantification of MCL1 immunoblot signals using Image J. Results are expressed as % MCL-1 normalized to vinculin (mean ± SEM from (c) plus 2 additional biological replicates (see Supplementary Source Data).
Significance (p<0.05) was determined using a one sample t-test (two-tailed) comparing treatment with the control from each cell line. Significance was observed […]
p=0.0153) expressing cells. p values are denoted as *p<0.05, **p<0.01, ***p<0.001, […]
and f 16 hr from (c), using Image J. A one sample t -test was performed for each cell treatment compared to their control and found no significant differences for either tim e point (p>0.05) . Comparison of the control conditions for expression of each mutant with the overexpressed WT using an ordinary one-way ANOVA with Tukey multiple comparisons test found all mutants p<0.001 except S209A (p=0.0337) at 6 hr and all

CC[C@H](O[C@H](C)CO)c1ccc(-c2ccccc2F)cc1NCCO [Compound 4]
Plasma protein binding [1]: 98.9%
Aqueous kinetic solubility (pH7.5) [2]: 400 µM
Human microsomal intrinsic clearance ([3]; 1 µM, 0.25 mg/mL microsomes): 210 µL/min/mg protein
clearance in human liver microsomes ([3]; human): moderate clearance

CC[C@H](C(=O)N1CCCC[C@H]1C(=O)O[C@H](CCc1ccc(OC)c(OC)c1)c1ccccc1OCC(=O)NCCCCCCC(=O)N[C@H](C(=O)N1C[C@H](O)C[C@H]1C(=O)N[C@@H](C)c1ccc(-c2scnc2C)cc1)C(C)(C)C)c1cc(OC)c(OC)c(OC)c1 [dTAG^V-1]
Quantification of eIF4E (6 hr) normalised to WT expression, Average ([4]; C3-1, 0.5 uM): 0.00
Quantification of eIF4E (16 hr) normalised to WT expression, Average ([4]; C3-1, 0.5 uM): 0.00
Quantification of eIF4E (6 hr) normalised to WT expression, Average ([4]; C3-1, 1 uM): 0.00
Quantification of eIF4E (16 hr) normalised to WT expression, Average ([4]; C3-1, 1 uM): 0.00
Quantification of eIF4E (6 hr) normalised to WT expression, Average ([4]; L85R, 0.5 uM): 51.11
Quantification of eIF4E (16 hr) normalised to WT expression, Average ([4]; L85R, 0.5 uM): 19.14
Quantification of eIF4E (6 hr) normalised to WT expression, Average ([4]; L85R, 1 uM): 46.78
Quantification of eIF4E (16 hr) normalised to WT expression, Average ([4]; L85R, 1 uM): 21.33
Quantification of eIF4E (6 hr) normalised to WT expression, Average ([4]; L134R, 0.5 uM): 32.49
Quantification of eIF4E (16 hr) normalised to WT expression, Average ([4]; L134R, 0.5 uM): 17.61
Quantification of eIF4E (6 hr) normalised to WT expression, Average ([4]; L134R, 1 uM): 23.94
Quantification of eIF4E (16 hr) normalised to WT expression, Average ([4]; L134R, 1 uM): 19.17
Quantification of eIF4E (6 hr) normalised to WT expression, Average ([4]; S209A, 0.5 uM): 94.19
Quantification of eIF4E (16 hr) normalised to WT expression, Average ([4]; S209A, 0.5 uM): 103.66
Quantification of eIF4E (6 hr) normalised to WT expression, Average ([4]; S209A, 1 uM): 88.26
Quantification of eIF4E (16 hr) normalised to WT expression, Average ([4]; S209A, 1 uM): 106.16
Quantification of eIF4E (16 hr) normalised to WT expression, Average ([4]; W56A, 0.5 uM (Conc column empty, by row)): 63.22
Quantification of eIF4E (6 hr) normalised to WT expression, Average ([4]; W56A, 0.5 uM): 56.71
Quantification of eIF4E (16 hr) normalised to WT expression, Average ([4]; W56A, 1 uM (Conc column empty, by row)): 50.88
Quantification of eIF4E (6 hr) normalised to WT expression, Average ([4]; W56A, 1 uM): 52.12
Quantification of eIF4E (6 hr) normalised to WT expression, Average ([4]; W73F/L85R, 0.5 uM): 30.95
Quantification of eIF4E (16 hr) normalised to WT expression, Average ([4]; W73F/L85R, 0.5 uM): 15.77
Quantification of eIF4E (6 hr) normalised to WT expression, Average ([4]; W73F/L85R, 1 uM): 30.11
Quantification of eIF4E (16 hr) normalised to WT expression, Average ([4]; W73F/L85R, 1 uM): 16.64
Quantification of eIF4E (6 hr) normalised to WT expression, Average ([4]; W73F, 0.5 uM): 72.55
Quantification of eIF4E (16 hr) normalised to WT expression, Average ([4]; W73F, 0.5 uM): 42.45
Quantification of eIF4E (6 hr) normalised to WT expression, Average ([4]; W73F, 1 uM): 71.88
Quantification of eIF4E (16 hr) normalised to WT expression, Average ([4]; W73F, 1 uM): 30.23
Quantification of eIF4E (6 hr) normalised to WT expression, Average ([4]; WT, 0.5 uM): 100.00
Quantification of eIF4E (16 hr) normalised to WT expression, Average ([4]; WT, 0.5 uM): 100.00
Quantification of eIF4E (6 hr) normalised to WT expression, Average ([4]; WT, 1 uM): 100.00
Quantification of eIF4E (16 hr) normalised to WT expression, Average ([4]; WT, 1 uM): 100.00
